Experimental data as given in paper PMC5674494, “Use of Cyclic Backbone NGR-Based SPECT to Increase Efficacy of Postmyocardial Infarction Angiogenesis Imaging” (Contrast Media & Molecular Imaging, 2017).
Positions of bridges follow the written chain, without caps; N, C: chain ends. Residues, ends and D or L forms follow the SMILES beside them. *: point of attachment. X1 = N[C@@H](CSC1CC(=O)N(CC2CCC(C(=O)NCCCCC(C(=O)O)N(CCN(CC(=O)O)CC(=O)O)CCN(CC(=O)O)CC(=O)O)CC2)C1=O)C(=O)*

Columns and labels:
[1] = Micro-SPECT myocardial perfusion, SUV of 99mTc-sestamibi in heart segments; format: in vivo, Swiss mice; settings: i.v., last of 4 15-min SPECT frames, mean ± SEM
Experimental: In 10–12-week-old male Swiss mice, we induced MI by ligation of the left anterior descending coronary artery (LAD) as described before to test coNGR (n = 5) or co(NGR)4 (n = 8). […] SPECT imaging was performed 7 days after MI or sham surgery. All animals were held under the guidelines of the animal care facility (Maastricht University). All animal experiments were approved by the Committee for Animal Welfare of Maastricht University.
Mice were anesthetized with isoflurane (induction 2.5%; maintenance 1.5%), a catheter was placed in a tail vein, and animals were positioned in the SPECT camera (MILabs, Utrecht, The Netherlands). Prior to image acquisition, a bolus injection of ^99mTc-sestamibi and ^111In-coNGR or ^111In-co(NGR)4 was given intravenously (i.v.) in a maximum volume of 200 µL. Table S1 in Supplementary Material available online at https://doi.org/10.1155/2017/8638549 provides an overview of the average injected dose. Immediately after injection, 4 consecutive time frames of 15 min each were acquired. For image quantification we used the last of these frames.
Acquired list mode data was reconstructed using MILabs reconstruction software (version 2.51) employing the POS-EM algorithm (6 iterations and 16 subsets, reconstructed at a voxel size of 0.4 mm). ^99mTc and ^111In images were reconstructed by selecting photo peak and background energy levels as described before.
To allow quantification of imaging agent uptake, in vivo isotope-specific conversion factors (CF) were determined for the 0.6 mm collimator in a representative phantom with a known activity. Using the previously described method the following conversion factors (CF), CF99mTc 612 MBq/mL and CF111In 643 MBq/mL, were found.
PMOD 3.7 cardiac tool PCARD (PMOD technologies, Zürich, Switzerland) was used to segment the heart in the 17-segment model. Uptake per segment was subsequently expressed as a mean standardized uptake value (SUVmean), also using the previously described method. For body weight, we assumed that 1 g equalled 1 mL.

[2] = in vitro; format: in vitro ADME; settings: human, whole blood
Experimental: ^111[…], or ^111In-co(NGR)4 was added to […] human blood in heparin (BD Biosciences, […], The Netherlands). Blood stability was tested at 0, 10, 30, and 50 min. For each time point imaging agents were separated from blood cells and proteins by adding 0.5 mL MeCN (VWR International BV, Breda, The Netherlands) to 0.5 mL blood sample followed by centrifugation (2,000 ×g, 3 min). Supernatant samples were analyzed by HPLC using the above-mentioned method.

[3] = Octanol/water partition coefficient (logP); format: physicochemical; settings: 111In-labeled tracer, separate experiment 2 of 3, N = 3, method as ref 22
Experimental: The logP value of each compound was determined in three separate experiments as described previously.

[4] = MI mice (n = 5), coNGR group, 7 days after LAD ligation
[5] = MI mice (n = 8), co(NGR)4 group, 7 days after LAD ligation
[6] = Sham-operated mice (n = 6), co(NGR)4 group, 7 days after surgery

Structure (SMILES): [C-]#[N+]CC(C)(C)OC.[C-]#[N+]CC(C)(C)OC.[C-]#[N+]CC(C)(C)OC.[C-]#[N+]CC(C)(C)OC.[C-]#[N+]CC(C)(C)OC.[C-]#[N+]CC(C)(C)OC.[Tc] [^99mTc-sestamibi]
- SUV of 99mTc-sestamibi, segment 1. Basal anterior [1, 4]: 2.46 ± 0.45
- SUV of 99mTc-sestamibi, segment 2. Basal anteroseptal [1, 4]: 2.28 ± 0.39
- SUV of 99mTc-sestamibi, segment 3. Basal inferoseptal [1, 4]: 2.33 ± 0.38
- SUV of 99mTc-sestamibi, segment 4. Basal inferior [1, 4]: 2.60 ± 0.56
- SUV of 99mTc-sestamibi, segment 5. Basal inferolateral [1, 4]: 2.23 ± 0.63
- SUV of 99mTc-sestamibi, segment 6. Basal anterolateral [1, 4]: 2.14 ± 0.52
- SUV of 99mTc-sestamibi, segment 7. Mid anterior [1, 4]: 1.41 ± 0.28
- SUV of 99mTc-sestamibi, segment 8. Mid anteroseptal [1, 4]: 2.46 ± 0.39
- SUV of 99mTc-sestamibi, segment 9. Mid inferoseptal [1, 4]: 2.27 ± 0.53
- SUV of 99mTc-sestamibi, segment 10. Mid inferior [1, 4]: 1.64 ± 0.67
- SUV of 99mTc-sestamibi, segment 11. Mid inferolateral [1, 4]: 0.75 ± 0.24
- SUV of 99mTc-sestamibi, segment 12. Mid anterolateral [1, 4]: 0.42 ± 0.09
- SUV of 99mTc-sestamibi, segment 13. Apical anterior [1, 4]: 0.71 ± 0.30
- SUV of 99mTc-sestamibi, segment 14. Apical septal [1, 4]: 1.67 ± 0.39
- SUV of 99mTc-sestamibi, segment 15. Apical inferior [1, 4]: 1.30 ± 0.31
- SUV of 99mTc-sestamibi, segment 16. Apical lateral [1, 4]: 0.59 ± 0.26
- SUV of 99mTc-sestamibi, segment 17. Apex [1, 4]: 0.98 ± 0.35
- SUV of 99mTc-sestamibi, segment 1. Basal anterior [1, 5]: 2.60 ± 0.70
- SUV of 99mTc-sestamibi, segment 2. Basal anteroseptal [1, 5]: 3.68 ± 0.42
- SUV of 99mTc-sestamibi, segment 3. Basal inferoseptal [1, 5]: 3.97 ± 0.49
- SUV of 99mTc-sestamibi, segment 4. Basal inferior [1, 5]: 3.06 ± 0.54
- SUV of 99mTc-sestamibi, segment 5. Basal inferolateral [1, 5]: 1.66 ± 0.47
- SUV of 99mTc-sestamibi, segment 6. Basal anterolateral [1, 5]: 1.60 ± 0.55
- SUV of 99mTc-sestamibi, segment 7. Mid anterior [1, 5]: 1.35 ± 0.31
- SUV of 99mTc-sestamibi, segment 8. Mid anteroseptal [1, 5]: 3.56 ± 0.47
- SUV of 99mTc-sestamibi, segment 9. Mid inferoseptal [1, 5]: 3.57 ± 0.68
- SUV of 99mTc-sestamibi, segment 10. Mid inferior [1, 5]: 2.21 ± 0.52
- SUV of 99mTc-sestamibi, segment 11. Mid inferolateral [1, 5]: 0.68 ± 0.07
- SUV of 99mTc-sestamibi, segment 12. Mid anterolateral [1, 5]: 0.62 ± 0.07
- SUV of 99mTc-sestamibi, segment 13. Apical anterior [1, 5]: 1.04 ± 0.25
- SUV of 99mTc-sestamibi, segment 14. Apical septal [1, 5]: 2.68 ± 0.30
- SUV of 99mTc-sestamibi, segment 15. Apical inferior [1, 5]: 2.06 ± 0.24
- SUV of 99mTc-sestamibi, segment 16. Apical lateral [1, 5]: 0.67 ± 0.11
- SUV of 99mTc-sestamibi, segment 17. Apex [1, 5]: 1.25 ± 0.32
- SUV of 99mTc-sestamibi, segment 1. Basal anterior [1, 6]: 2.91 ± .026
- SUV of 99mTc-sestamibi, segment 2. Basal anteroseptal [1, 6]: 2.72 ± 0.32
- SUV of 99mTc-sestamibi, segment 3. Basal inferoseptal [1, 6]: 2.89 ± 0.33
- SUV of 99mTc-sestamibi, segment 4. Basal inferior [1, 6]: 3.07 ± 0.33
- SUV of 99mTc-sestamibi, segment 5. Basal inferolateral [1, 6]: 3.03 ± 0.30
- SUV of 99mTc-sestamibi, segment 6. Basal anterolateral [1, 6]: 2.89 ± 0.20
- SUV of 99mTc-sestamibi, segment 7. Mid anterior [1, 6]: 3.00 ± 0.22
- SUV of 99mTc-sestamibi, segment 8. Mid anteroseptal [1, 6]: 3.10 ± 0.28
- SUV of 99mTc-sestamibi, segment 9. Mid inferoseptal [1, 6]: 3.16 ± 0.26
- SUV of 99mTc-sestamibi, segment 10. Mid inferior [1, 6]: 3.03 ± 0.29
- SUV of 99mTc-sestamibi, segment 11. Mid inferolateral [1, 6]: 3.06 ± 0.34
- SUV of 99mTc-sestamibi, segment 12. Mid anterolateral [1, 6]: 2.77 ± 0.22
- SUV of 99mTc-sestamibi, segment 13. Apical anterior [1, 6]: 2.93 ± 0.22
- SUV of 99mTc-sestamibi, segment 14. Apical septal [1, 6]: 3.23 ± 0.24
- SUV of 99mTc-sestamibi, segment 15. Apical inferior [1, 6]: 2.88 ± 0.32
- SUV of 99mTc-sestamibi, segment 16. Apical lateral [1, 6]: 2.44 ± 0.20
- SUV of 99mTc-sestamibi, segment 17. Apex [1, 6]: 2.71 ± 0.25

Structure (SMILES): CC(=O)N[C@H]1CSSC[C@@H](C(=O)NCC(=O)NCC(=O)N[C@@H](CCCCNC(=O)[C@@H](N)CSC2CC(=O)N(CC3CCC(C(=O)NCCCCC(C(=O)O)N(CCN(CC(=O)O)CC(=O)O)CCN(CC(=O)O)CC(=O)O)CC3)C2=O)C(N)=O)NC(=O)[C@H](CCCNC(=N)N)NC(=O)CNC(=O)[C@H](CC(N)=O)NC1=O (stereo partly drawn) [cNGR, cyclic(NAc-Cys-Asn-Gly-Arg-Cys-Gly-Gly-Lys)] (Ac-CNGRCGGK(X1)-NH2; disulfide 1-5)
- remaining at 50 min [2]: 7.55%
- logP2 [3]: −4.17 ± 0.01
